The values that follow come from US8618114B2 (priority 2008, dated 2013).

Counter-ions that a name gives are not always drawn.

Experiment [1] addresses T1, 5-HT6 receptor (Homo sapiens (Human), UniProt P50406). Description: competitive radioligand binding ([3H] Lysergic acid diethylamide) to serotonin 5-HT6 receptors, HeLa cell membranes. Conditions: read-out: IC50, competitive assay of serotonin 5-HT6 receptor inhibition; displacement of 1.5 nM [3H] Lysergic acid diethylamide, 120 min at 37° C.
Method: Determination of activity of the compounds of the general formula 1 in the setting of competitive binding to serotonin 5-HT6 receptors.
Screening of the disclosed compounds for their potential ability to interact with serotonin 5-HT6 receptors was carried out by method of radioligand binding. For this purpose membrane species were prepared from expressing recombinant human 5-HT6 receptors HeLa cells by means of their homogenization in glass homogenizer with subsequent separation of plasmatic membranes from cell nucli, mitochondria's and cell wreckages by differential centrifugation. Determination of tested compounds binding to 5-HT6 receptors was carried out according to the method described in [Monsma F J Jr, Shen Y, Ward R P, Hamblin M W and Sibley D R, Cloning and expression of a novel serotonin receptor with high affinity for tricyclic psychotropic drugs. […] After incubation the samples were filtered in vacuo on glass-microfiber filters G/F (Millipor, USA), filters were washed three times with cold solution of the medium and radioactivity was measured by scintillation counter MicroBeta 340 (PerkinElmer, USA). Nonspecific binding which made up 30% of overall binding was determined by incubation of membrane preparations with radioligand in the presence of 5 μM Serotonin (5-HT). Methiothepin was used as positive control. Binding of the tested compounds to the receptor was determined by their ability to displace the radioligand and expressed in percent of displacement. The percent of displacement was calculated according to the following equation:
[formula] wherein: TA—was overall radioactivity in the presence of radioligand only, CA—was radioactivity in the presence of radioligand and tested compound and NA—was radioactivity in the presence of radioligand and Serotonin (5 μM).
The target of experiment [2] is T1, 5-HT6 receptor. As to the kind of experiment: functional assay for serotonin 5-HT6 receptor inhibition (serotonin-induced intracellular cAMP, LANCE cAMP kit, HEK 293 cells). To be noted: HEK 293 cells with expressed 5-HT6 receptor; reduction of serotonin-induced intracellular cAMP. It counts as cell-based. As for the experimental part:
Determination of antagonistic activity of compounds of the general formula 1 towards 5-HT6 receptors. Compounds of the general formula 1 were tested for their ability to prevent 5-HT6 receptors activation by serotonin. HEK 293 cells (cells of human embryo's kidney) with artificially expressed 5-HT6 receptor, activation of which by serotonin leads to increasing the concentration of intracellular cAMP, were used. The level of intracellular cAMP was determined using reagent kit LANCE cAMP (PerkinElmer) according to the method described by the manufacturer of the kit [http://las.perkinelmer.com/content/Manuals/MAN_LANCEcAMP384KitUser.pdf]. Effectiveness of the compounds was estimated by their ability to reduce the level of intracellular cAMP induced by serotonin. Table 4 presents IC50 values for the compounds of general formula 1 in the setting of functional assay for serotonin 5-HT6 receptor inhibition. The data given testify their moderate or high antagonistic activity.
(TR-FRET usually uses a lanthanide donor and a delayed reading to cut background.)

In another experiment the test system is male mice of BALB/c line. As to the kind of experiment: Mice Behavior in the Elevated Plus Maze. It counts as in vivo, mouse. The method, then:
Anxiolytic activity of compounds 1.1(11), 1.2.7(1), 1.2.6(1), 1.2.3(1), 1.2.11(1), 1.2.22(1), 1.2.22(18) in test “Mice Behavior in the Elevated Plus Maze”. The experiments were carried out in aged male mice of BALB/c line weighing about 25 g. The animals were housed 5-7 per cage with water and food available. None of the animals was acquainted with the experimental set-up before. Each experimental group included 8 animals.
The procedure used was described earlier by Lister (Lister R. G. The use of a plus-maze to measure anxiety in the mouse. Psychopharmacology, 1987; 92:180-185). Plexiglass set-up consisted of two opened arms of 30×5 cm size and two closed arms of 30×5×15 cm size. Side arms were closed with transparent plexiglass and were connected with the central zone via a platform of 5×5 cm size. The opened arms, central platform and floor were made of black plexiglass. The set-up was mounted on a metallic base which was placed 38.5 cm above the floor level.
The animals were injected intraperitoneally with placebo, Buspirone (5 mg/kg, 30 minutes before training), Lorazepam (0.05 mg/kg, 60 minutes before training) or with one of the tested compounds 1.1(11), 1.2.7(1), 1.2.6(1), 1.2.3(1), 1.2.11(1), 1.2.22(1), 1.2.22(18). Buspirone and Lorazepam were introduced in a maximal effective dose, at which side sedative effect and general decrease of exploratory activity (the number of arm entries during the test) were not observed yet.
Each mouse was placed in the maze center with its head towards the opened arm. Over a period of 5 minutes the sequence and duration of arm entries were registered by means of a computer program. Criterion for entry is a location of all animal's paws inside the arm at the same time. The index of preference was calculated as a ratio of the time spent by the animal in the opened arms as well as the number of entries into the opened arms to the total time spent by it in the opened and closed arms or, respectively, to the whole number of entries to the arms of both types. The number of defecations left by a mouse was regarded as an additional parameter characterizing the anxiety state. Being in normal state the animals usually avoid open arms (the preference index is between 0.2 and 0.3).

A further experiment deals with male mice of SHK line. Description: Novel object recognition test, Scopolamine amnesia model. It counts as in vivo, mouse. Conditions: Scopolamine 1 mg/kg i.p. The method, then: 14.1.2. Novel object recognition test. The test was carried out in aged male mice of SHK line. […] A mouse was placed into the central chamber and allowed to explore the maze. The floor was cleaned after each animal. The sequence of chamber entries and duration of visits were registered by the observer. The test was ended after 13 entries into the dead-end chambers. Criterion for entry was a location of all animal's paws inside the chamber at the same time.
During the training the animal was placed in the maze with one equiform bowl in each side chamber. In the course of testing (one hour after training) two opposite standing bowls were replaced by identical flasks, and the animal was allowed to explore the maze. The time spent by the animal in each side chamber was registered during the periods of training and testing. Index of novel object recognition was calculated as the ratio of time spent by the animal in the side chambers with novel objects to the total time spent by it in all side chambers.

T1 sequence (P50406 whole entry): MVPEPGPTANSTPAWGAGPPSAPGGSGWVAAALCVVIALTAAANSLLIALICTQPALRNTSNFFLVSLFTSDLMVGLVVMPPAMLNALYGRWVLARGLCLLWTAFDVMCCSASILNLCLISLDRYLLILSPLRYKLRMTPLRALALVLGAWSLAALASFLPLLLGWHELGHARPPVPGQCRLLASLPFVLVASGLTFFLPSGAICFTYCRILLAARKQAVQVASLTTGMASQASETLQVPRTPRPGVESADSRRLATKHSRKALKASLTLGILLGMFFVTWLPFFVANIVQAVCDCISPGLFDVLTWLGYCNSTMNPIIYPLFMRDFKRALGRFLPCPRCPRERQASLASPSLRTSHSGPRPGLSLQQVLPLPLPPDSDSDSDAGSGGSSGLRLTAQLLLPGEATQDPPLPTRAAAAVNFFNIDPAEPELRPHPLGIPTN

Consider `CSc1nn2c(C)c(Cl)c(C)nc2c1S(=O)(=O)c1ccccc1` [1.1(4)], for which the results for the IC50 at 5-HT6 receptor [1] and against 5-HT6 receptor [2] were less than 10 nM and 300 nM, respectively. Regarding `CSc1nn2c(C)c(Oc3ccccc3)c(C)nc2c1S(=O)(=O)c1ccccc1` [1.1(6)], the IC50 at 5-HT6 receptor [1] was 50 nM; on 5-HT6 receptor [2] it was more than 10000 nM. For `CSc1nn2ccc(C)nc2c1S(=O)(=O)c1ccc(F)cc1` [1.1.2(2), 5-methyl-2-methylsulfanyl-3-(4-fluorophenylsulfonyl)-pyrazolo[1,5-a]pyrimidine] the same measures were 50 nM and 996 nM. Consider `CSc1nn2c(C)ccnc2c1S(=O)(=O)c1ccccc1` [1.1.3(1), 7-methyl-2-methylsulfanyl-3-phenylsulfonyl-pyrazolo[1,5-a]pyrimidine], for which the half-inhibitory concentration (IC50) worked out at 40 nM on 5-HT6 receptor [1] and 1110 nM against 5-HT6 receptor [2]. For `COc1cc(-c2cccnc2)nc2c(S(=O)(=O)c3ccccc3)c(SC)nn12` [1.1.8(3), 2-methylsulfanyl-7-methoxy-5-(pyridin-3-yl)-3-phenylsulfonyl-pyrazolo[1,5-a]pyrimidine] the same measures were less than 10 nM and less than 10 nM. In the same order, the values of `CNc1nn2cccnc2c1S(=O)(=O)c1ccc(F)cc1` [1.2.1(2), 2-methylamino-3-(4-fluorophenylsulfonyl)-pyrazolo[1,5-a]pyrimidine] are 18 nM and 45 nM. Turning to `CNc1nn2cccnc2c1S(=O)(=O)c1cccc(Cl)c1` [1.2.1(4), 2-methylamino-3-(3-chlorophenylsulfonyl)-pyrazolo[1,5-a]pyrimidine], the half-maximal inhibitory concentration (IC50) at 5-HT6 receptor [1] was determined as 5.01 nM; against 5-HT6 receptor [2], 24 nM. For the compound `CNc1nn2c(C)ccnc2c1S(=O)(=O)c1ccccc1` [1.2.3(1), 7-methyl-2-methylamino-3-phenylsulfonyl-pyrazolo[1,5-a]pyrimidine], the half-inhibitory concentration (IC50) on 5-HT6 receptor [1] worked out at 0.74 nM; against 5-HT6 receptor [2] it was 3 nM. Take `CNc1nn2c(COC)cc(C)nc2c1S(=O)(=O)c1ccccc1` [1.2.4(1), 5-methyl-2-methylamino-7-(methoxymethyl)-3-phenylsulfonyl-pyrazolo[1,5-a]pyrimidine]: the concentration for half-maximal inhibition (IC50) on 5-HT6 receptor [1] is 0.34 nM; on 5-HT6 receptor [2], 101 nM. For `CNc1nn2c(OC)cc(-c3cccnc3)nc2c1S(=O)(=O)c1ccccc1` [1.2.10(3), 2-methylamino-7-methoxy-5-(pyridin-3-yl)-3-phenylsulfonyl-pyrazolo[1,5-a]pyrimidine], the IC50 on 5-HT6 receptor [1] is less than 10 nM; against 5-HT6 receptor [2], 12 nM. On to `CNc1nn2c(N)cc(C)nc2c1S(=O)(=O)c1ccccc1` [1.2.11(1), 7-amino-5-methyl-2-methylamino-3-phenylsulfonyl-pyrazolo[1,5-a]pyrimidine], for which the 50% inhibitory concentration (IC50) came to 0.293 nM at 5-HT6 receptor [1] and 12 nM at 5-HT6 receptor [2]. Further, the “anxiolytic activity in the elevated plus maze” value in the experiment with male mice of BALB/c line (tested compounds i.p., FIG. 14-16) is recorded as “anxiolytic activity analogous to the activity of control compounds”. `CNc1nn2c(NCCN(C)C)cc(C)nc2c1S(=O)(=O)c1ccccc1` [1.2.12(3), 7-(2-dimethylamino)ethylamino-5-methyl-2-methylamino-3-phenylsulfonyl-pyrazolo[1,5-a]pyrimidine]: the 50% inhibitory concentration (IC50) at 5-HT6 receptor [1] came to 69.9 nM; against 5-HT6 receptor [2], 1550 nM. In the case of `CNc1nn2c(N3CCN(C)CC3)cc(C)nc2c1S(=O)(=O)c1ccccc1` [1.2.12(4).HCl], the IC50 at 5-HT6 receptor [1] was found to be 4.19 nM; on 5-HT6 receptor [2], 173 nM. In the case of `CNc1nn2c(N3CCOCC3)cc(C)nc2c1S(=O)(=O)c1ccccc1` [1.2.12(5), 5-methyl-2-methylamino-7-(morfolin-4-yl)-3-phenylsulfonyl-pyrazolo[1,5-a]pyrimidine], the IC50 on 5-HT6 receptor [1] is 31 nM. For the compound `CCOC(=O)Cc1c(C)nc2c(S(=O)(=O)c3ccccc3)c(NC(C)C)nn2c1C` [1.2.13(3)], at 5-HT6 receptor [1], the IC50 came to 1.28 nM.

For the compound `CNc1nn2c(C)c(CC(=O)N(C)C)c(C)nc2c1S(=O)(=O)c1ccccc1` [1.2.19(1).CH3CO2H], the IC50 on 5-HT6 receptor [1] was 15.3 nM.

As to `CNc1nn2c(C)c(CCC(=O)N(C)CCN(C)C)c(C)nc2c1S(=O)(=O)c1ccccc1` [1.2.19(2).HCl], the results for the IC50 on 5-HT6 receptor [1] and at 5-HT6 receptor [2] were 174 nM and 1680 nM, respectively. As to `CNc1nn2c(C)c(CCC(=O)N(C)CCCN(C)C)c(C)nc2c1S(=O)(=O)c1ccccc1` [1.2.19(3).HCl], the concentration for half-maximal inhibition (IC50) came out at 291 nM at 5-HT6 receptor [1] and 2280 nM on 5-HT6 receptor [2]. In the case of `CNc1nn2c(C)c(CCC(=O)N3CCN(C)CC3)c(C)nc2c1S(=O)(=O)c1ccccc1` [1.2.19(4).HCl], the IC50 at 5-HT6 receptor [1] is 306 nM; on 5-HT6 receptor [2], 6060 nM. `CNc1nn2c(C)c(N)c(C)nc2c1S(=O)(=O)c1ccccc1` [1.2.22(1).HCl]: the concentration for half-maximal inhibition (IC50) on 5-HT6 receptor [1] worked out at 0.67 nM; at 5-HT6 receptor [2], 11.3 nM. On to `CNc1nn2c(C)c(CN)c(C)nc2c1S(=O)(=O)c1ccccc1` [1.2.22(2).HCl], for which the 50% inhibitory concentration (IC50) on 5-HT6 receptor [1] came out at 0.56 nM; against 5-HT6 receptor [2] it was 9 nM. With `CNc1nn2c(C)c(CCN)c(C)nc2c1S(=O)(=O)c1ccccc1` [1.2.22(3).HCl], the half-maximal inhibitory concentration (IC50) at 5-HT6 receptor [1] came to 0.645 nM; against 5-HT6 receptor [2], 45 nM.

Turning to `CNc1nn2c(C)c(CN)c(C)nc2c1S(=O)(=O)c1cccc(Cl)c1` [1.2.22(5).HCl], the IC50 at 5-HT6 receptor [1] was 0.227 nM; on 5-HT6 receptor [2], 10 nM.

As for `O=C1CC2(CCCC2)CC(=O)N1CCCCN1CCN(c2ncccn2)CC1` [Buspirone, reference compound], in the experiment on male mice of BALB/c line (Buspirone 5 mg/kg i.p., 30 minutes before training), the “anxiolytic effect in the elevated plus maze” value is on record as “well-marked anxiolytic effect”. Take `Cc1ccc2c(c1)c1c(n2CCc2ccc(C)nc2)CCN(C)C1` [Dimebon, reference compound]: the “prevention of Scopolamine-disturbed novel object recognition” value with male mice of SHK line (Dimebon 0.1 mg/kg i.p. 5 minutes before training) is recorded as “prevented”. Consider `O=C1Nc2ccc(Cl)cc2C(c2ccccc2Cl)=NC1O` (stereo not drawn) [Lorazepam, reference compound], for which the “anxiolytic effect in the elevated plus maze” value in the experiment with male mice of BALB/c line (Lorazepam 0.05 mg/kg i.p., 60 minutes before training) is recorded as “well-marked anxiolytic effect”.

Regarding `Nc1c2c(nc3ccccc13)CCCC2` [Tacrine, reference compound], the “prevention of Scopolamine-disturbed novel object recognition” value with male mice of SHK line (Tacrine 10 mg/kg i.p. 30 minutes before training) is on record as “prevented”.

Usually IC50 stands for the concentration that inhibits the measured activity by half.
